Where two headings read alike, the source gives them in different places.
Key:
[1] = symmetric NRFB, cited from earlier work
[2] = Cyclic voltammetry: redox potentials, diffusion coefficients, electron-transfer rate constants; assay type: physicochemical; conditions: for D0: calculated using eq 2 (Randles-Sevcik); for D0 / k0: GC electrode; for k0: calculated using eq 4 (Nicholson method)
Protocol: These redox events correspond to the 2b^+/2b couple at +0.08 V, the 2b/2b^− couple at −0.20 V, the 2b^−/2b^2− couple at −0.90 V, and the 2b^2−/2b^3− couple at −1.38 V vs SCE.
The mass transport and electrokinetics of 2b were also evaluated because a RFB analyte must have fast diffusion kinetics (D) and heterogeneous electron-transfer rate (k0) to have a high rate capability. Roughly, k0 of 10^−5 cm/s is considered a minimum requirement, and this minimum requirement is met by most of the recently studied NRFB analytes. The rate is also dependent on the electrode material, and is generally orders of magnitude higher when using Hg, Pt, or Au electrodes. For this reason, kinetic parameters were probed using a glass carbon (GC) button electrode. CV's were recorded of 2b at varying scan rates, and the D values were determined by plotting the current density versus the square root of the scan rate (FIGS. 6A-C). From the slope of the linear fit of this line and the Randles-Sevcik equation (see equations below), D for each redox couple was obtained (eq. 2). Plots of the inverse of the square root of the scan rate versus the transfer parameter (ψ), extracted from the peak to peak separation (ΔEp), were also constructed, so that k0 could be calculated using the Nicholson method (TABLE 5, eq 3-4). For each redox couple D is on the order of 10^−6 cm^2/s, and k0 is on the order of 10^−3 cm/s (TABLE 5).
All potentials are referenced to the SCE couple, and ferrocene was used as an external standard where the E/of ferrocene/ferrocenium is +0.40 V vs. SCE in 0.1 M Bu4NPF6MeCN. Bu4NPF6 was recrystallized from ethanol and placed under vacuum for 72 hours before electrolyte solutions were made. Electrolyte solutions were stored over 3 Å molecular sieves for at least 48 hours before use. Sieves were activated by heating under vacuum at 270° C. for at least 72 hours. UV-Vis spectra were obtained using a 1 cm cuvette using an Agilent 8453 UV-vis spectrophotometer.
The diffusion coefficients for each redox couple were determined by first plotting CV's of 2b at varying scan rates (0.2-8 V/s) (FIG. 10). The diffusion coefficients were then determined from the slope of the peak current density (jp) versus the square root of the scan rate (υ^1/2):
[…], transfer parameter (ψ) was calculated by obtaining the peak to peak separation of each redox couple (ΔEp), at varying scan rates (0.2-8 V/s) (FIG. 10):
[formula] The electron transfer rate constant (k0) was then extracted from the slope of a plot of versus υ^1/2 (FIG. 10):
[formula] where n is the number of electrons transferred, F is the Faraday constant (96485 Cmol^−1), D is the averaged diffusion coefficient for the oxidation and reduction reaction (DO and DR) (cm^2/s), υ is the scan rate (V/s), R is the ideal gas constant (8.314 J/mol-K) and T is the temperature (K). Calculation 4.

[3] = Charging/discharging, symmetric NRFB H-cell, glass frit separator; conditions: after three weeks of charging/discharging
Protocol: Complex 2b was tested in both symmetric and asymmetric NRFB configurations and in both cases, an anion exchange membrane (AEM), and a glass frit as separator between the working electrode and counter electrode compartments were trialed. […] A current of 0.2 mA for the charge and 0.2 mA for the discharge were chosen as described below. Two consecutive plateaus are observed for each charging and discharging process, indicative of two electron transfer processes (FIGS. 12A-B and 13).
The first plateau at −0.97 V is determined by the oxidation of 2b^− to 2b in the cathodic compartment, and the concurrent reduction of 2b^− to 2b^2− in the anodic compartment. The second plateau at −0.21 V is determined by the oxidation of 2b to 2b^+ in the cathodic compartment, with concurrent reduction of 2b^2− to 2b^3− in the anodic compartment. Upon discharge, the reduction of 2b^+ to 2b and 2b to 2b^− in the cathodic compartment results in a small potential drop, with discharging plateaus of −0.98 and −0.24 V, respectively.
Charge-discharge studies were performed inside of a glovebox under an inert atmosphere using a CH Instruments Electrochemical Analyzer Model 1400. The custom H-cell was designed by Adams and Chittenden (FIGS. 21A-B and 22) with compartments separated by an AMI-7001S Anion exchange membrane (Membrane International Inc.) or glass frit. […]

[4] = Charging/discharging, asymmetric H-cell, anion exchange membrane separator
Protocol: Complex 2b was also tested as an analyte in an asymmetric cell configuration because this allowed us to achieve a cell design where up to four electrons are stored during each charge and discharge cycle. Using an AEM as separator, potentials and currents were initially chosen to maximize the energy density of the cell: storing 4 electrons in the battery. Over 10 cycles and 45 h, a Coulombic efficiency of 98% was observed (FIGS. 17A-C). […] An asymmetric cell with 2b functioning as a four-electron analyte could be revisited as AEM technology is refined.
Charge-discharge studies were performed inside of a glovebox under an inert atmosphere using a CH Instruments Electrochemical Analyzer Model 1400. The custom H-cell was designed by Adams and Chittenden (FIGS. 21A-B and 22) with compartments separated by an AMI-7001S Anion exchange membrane (Membrane International Inc.) or glass frit. If a membrane was used, it was soaked in 0.5 M nBu4NBF4MeCN electrolyte solution for 48 h prior to use. […] In the asymmetric studies, the counter compartment contained only 3.5 mL 0.5 M nBu4NBF4MeCN electrolyte solution, and an isomolded graphite rod counter electrode. […]

[5] = Working electrode screen, extended cycling; conditions: GC electrodes, 100 cycles
Source text: Potential working electrodes for the NRFB cell tests were also screened. GC, reticulated vitreous carbon (RVC, 20, 80 and 100 PPI), graphite rods, and carbon felt which are all commonly employed as working electrodes in NRFB applications were examined.

[6] = Cyclic voltammetry: redox potentials, diffusion coefficients, electron-transfer rate constants; assay type: physicochemical

COCCOCCOCCNc1ccc(NCCOCCOCCOC)c2c1C(=O)c1ccccc1C2=O [(Me-TEG)2DAAQ]
Cactive ([1]; solvent DME): 1000 mM

C1=Cc2nc1c(-c1ccccc1)c1ccc([nH]1)c(-c1ccccc1)c1nc(c(-c3ccccc3)c3ccc([nH]3)c2-c2ccccc2)C=C1 [H2TPP]
Cactive ([1]; solvent CH2Cl2): 10 mM

[(I2P^−)2Al][OTf] [2b]
E1/2 ([2]; couple 2b^0/1−): −1.08 V vs SCE
D0 ([2]; couple 2b^0/1−): 6.3 (5.5) 10^−6 cm^2/s
k0 ([2]; couple 2b^0/1−): 13 ± 2.7 × 10^−3 cm/s
E1/2 ([2]; couple 2b^1+/0): −0.30 V vs SCE
D0 ([2]; couple 2b^1+/0): 5.1 (4.9) 10^−6 cm^2/s
k0 ([2]; couple 2b^1+/0): 8.9 ± 1.2 × 10^−3 cm/s
E1/2 ([2]; couple 2b^1−/2−): −1.51 V vs SCE
D0 ([2]; couple 2b^1−/2−): 9.9 (4.6) 10^−6 cm^2/s
k0 ([2]; couple 2b^1−/2−): 10 ± 2.1 × 10^−3 cm/s
D0 ([2]; couple 2b^2+/1+): 4.7 (6.8) 10^−6 cm^2/s
k0 ([2]; couple 2b^2+/1+): 8.1 ± 1.7 × 10^−3 cm/s
D, order of magnitude ([2]; each redox couple): ~10^−6 cm^2/s
k0, order of magnitude ([2]; each redox couple): ~10^−3 cm/s
degradation of analyte [3]: Partial degradation
degradation of the analyte ([4]; asymmetric NRFB configuration, multiple cycles, separator not stated): no degradation of the analyte
decomposition of the analyte ([4]; asymmetric cell, AEM, after 45 h): Decomposition of the analyte was observed
stability of analyte remaining in solution [5]: stable to extended cycling in solution
redox potential, 2b/2b^− couple ([6]; CV, 0.5 M Bu4NBF4 MeCN): −0.20 V vs SCE
redox potential, 2b^2−/2b^3− couple ([6]; CV, 0.5 M Bu4NBF4 MeCN): −1.38 V vs SCE
redox potential, 2b^+/2b couple ([6]; CV, 0.5 M Bu4NBF4 MeCN): +0.08 V vs SCE
redox potential, 2b^−/2b^2− couple ([6]; CV, 0.5 M Bu4NBF4 MeCN): −0.90 V vs SCE
E1/2 ([6]; couple 2b^2+/1+): 0.06 V vs SCE

[bpy(COOMe)2]3Cr
Cactive ([1]; solvent MeCN): 210 mM

phthalocyanine Mn-nitride [PcMnN]
Cactive ([1]; solvent MeCN): 1 mM

Source: patent US12665203B2, “Organo-metallic analytes for nonaqueous redox flow batteries” (The Regents of the University of California, priority 2020, dated 2026)
